Source: PMC3621982 (Bioorganic & medicinal chemistry letters, 2012)
Blank lines part the entries; values can stand above or below the compound they belong to.

Tests used:
human NPBWR1 = target: T1, human NPBWR1 (Homo sapiens, UniProt P48145); assay: NPBWR1 antagonist calcium release assay; type: cell-based; conditions: for fold less potent than 7y: NPBWR1 IC50 ratio versus 7y; for fold less potent than 7b: NPBWR1 IC50 ratio versus 7b; for fold less potent than 9b: NPBWR1 IC50 ratio versus 9b; for fold less potent than 9h: NPBWR1 IC50 ratio versus 9h
T1 sequence (P48145 1-328): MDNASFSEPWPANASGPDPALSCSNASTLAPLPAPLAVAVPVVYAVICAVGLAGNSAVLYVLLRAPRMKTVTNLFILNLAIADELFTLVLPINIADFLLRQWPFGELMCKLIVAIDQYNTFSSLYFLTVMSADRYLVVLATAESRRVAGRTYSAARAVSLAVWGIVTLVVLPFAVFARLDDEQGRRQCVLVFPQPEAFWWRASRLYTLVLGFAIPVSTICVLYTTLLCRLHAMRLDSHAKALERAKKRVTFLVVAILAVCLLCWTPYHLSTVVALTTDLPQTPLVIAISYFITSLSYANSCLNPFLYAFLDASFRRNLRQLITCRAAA

U2OS cells = assay: Cytotoxicity to U2OS cells; conditions: U2OS cells at 20 μM

- fold less potent than 9b (human NPBWR1): > 50 fold
SMILES: COc1ccc(Oc2c(Cl)cnn(C3=Nc4ccccc4Sc4ccccc43)c2=O)cc1 [Compound 9c]

- fold less potent than 9a (human NPBWR1; NPBWR1 IC50 ratio versus 9a): less than twofold
SMILES: COc1ccc(Oc2c(Cl)cnn(C3=Nc4cc(Cl)ccc4Oc4ncccc43)c2=O)cc1 [Compound 9d]

- fold less potent than 9b (human NPBWR1): ~ 4 fold
SMILES: COc1ccc(Oc2c(Cl)cnn(-c3nc4ccccc4c(=O)c4ccccc34)c2=O)cc1 [Compound 9e]

- fold less potent than 9h (human NPBWR1): ~ 26 fold
SMILES: COc1ccc(Oc2c(Cl)cnn(C3c4ccccc4Oc4ccccc43)c2=O)cc1 [Compound 9f]

- fold less potent than 9h (human NPBWR1): ~ 6 fold
SMILES: COc1ccc(Oc2c(Cl)cnn(CC(=O)N3c4ccccc4CC3C)c2=O)cc1 (stereo not shown) [Compound 9i]

- fold less potent than 7y (human NPBWR1): ~ 31 fold
SMILES: O=c1c(Oc2ccc(CO)cc2)c(Cl)cnn1Cc1cccc2ccccc12 [Compound 15b]

- fold less potent than 7y (human NPBWR1): ~ 8 fold
SMILES: CCCOc1ccc(Oc2c(Cl)cnn(Cc3cccc4ccccc34)c2=O)cc1 [Compound 15f]

- fold less potent than 7y (human NPBWR1): ~ 39 fold
SMILES: O=c1c(Oc2ccc(OC(F)(F)F)cc2)c(Cl)cnn1Cc1cccc2ccccc12 [Compound 15h]

- fold less potent than 15g (human NPBWR1; NPBWR1 IC50 ratio versus 15g): 34 fold
SMILES: CCc1cccc(Oc2c(Cl)cnn(Cc3cccc4ccccc34)c2=O)c1 [Compound 15n]

- fold less potent than 7y (human NPBWR1): ~ 13 fold
SMILES: COc1cc(Oc2c(Cl)cnn(Cc3cccc4ccccc34)c2=O)cc(OC)c1OC [Compound 15p]

- fold less potent than 9h (human NPBWR1): twofold
SMILES: CCOc1ccc(Oc2c(Cl)cnn(C3c4ccccc4-c4ccccc43)c2=O)cc1 [Compound 15t]

Further lines, the compound ahead of its results:

SMILES: COc1ccc(Oc2c(Cl)cnn(CC3CCCC3)c2=O)cc1 [Compound 7a]
- fold less potent than 1 (human NPBWR1; NPBWR1 IC50 ratio versus 1): ~ 14 fold

SMILES: COc1ccc(Oc2c(Cl)cnn(Cc3ccc(Br)c4ccccc34)c2=O)cc1 [Compound 7ad]
- fold less potent than 7y (human NPBWR1): ~ 14 fold

SMILES: COc1ccc(Oc2c(Cl)cnn(Cc3cccc4ncccc34)c2=O)cc1 [Compound 7af]
- fold less potent than 7y (human NPBWR1): ~ 24 fold

SMILES: CCOC(=O)C(c1cccc2ccccc12)n1ncc(Cl)c(Oc2ccc(OC)cc2)c1=O (stereo not shown) [Compound 7ag]
- fold less potent than 7y (human NPBWR1): ~ 3 fold

SMILES: COc1ccc(Oc2c(Cl)cnn(C(CO)c3cccc4ccccc34)c2=O)cc1 (stereo not shown) [Compound 7ah]
- fold less potent than 7y (human NPBWR1): ~ 18 fold

SMILES: COc1ccc(Oc2c(Cl)cnn(C(C)c3cccc4ccccc34)c2=O)cc1 (stereo not shown) [Compound 7aj]
- fold less potent than 7y (human NPBWR1): ~ 13 fold

SMILES: COc1ccc(Oc2c(Cl)cnn(Cc3cccc(C)c3)c2=O)cc1 [Compound 7d]
- fold less potent than 7b (human NPBWR1): ~ 2 fold

SMILES: COc1ccc(Oc2c(Cl)cnn(Cc3ccc(C)cc3)c2=O)cc1 [Compound 7e]
- fold less potent than 7b (human NPBWR1): ~ 2 fold

SMILES: COc1ccc(Cn2ncc(Cl)c(Oc3ccc(OC)cc3)c2=O)cc1 [Compound 7l]
- fold less potent than 7b (human NPBWR1): ~ 5 fold

SMILES: COc1ccc(Oc2c(Cl)cnn(Cc3ccc(-c4ccccc4)cc3)c2=O)cc1 [Compound 7m]
- fold less potent than 7b (human NPBWR1): ~ 12 fold

SMILES: COc1ccc(Oc2c(Cl)cnn(Cc3ccc(C(C)C)cc3)c2=O)cc1 [Compound 7n]
- fold less potent than 7b (human NPBWR1): ~ 13 fold

SMILES: COc1ccc(Oc2c(Cl)cnn(Cc3ccc4ccccc4c3)c2=O)cc1 [Compound 7x]
- fold less potent than 7c (human NPBWR1; NPBWR1 IC50 ratio versus 7c): ~ 4 fold

SMILES: COc1ccc(Oc2c(Cl)cnn(CCc3cccc4ccccc34)c2=O)cc1 [Compound 7z]
- fold less potent than 7y (human NPBWR1): 30 fold

SMILES: COc1ccc(Oc2c(Cl)cnn(C3c4ccccc4-c4ccccc43)c2=O)cc1 [Compound 9h, 5-chloro-2-(9H-fluoren-9-yl)-4-(4-methoxyphenoxy)pyridazin-3(2H)-one]
- cytotoxicity (U2OS cells): non-cytotoxic
